Like-named read-outs stand apart in the source and are kept apart here.
Tests used:
[1] = molecular target: sigma receptors; test: Sigma receptor binding assay, displacement of [³H]DTG; details: guinea pig brain membrane homogenates, radioligand [³H]DTG […], 90 minutes at room temperature; read-out: IC₅₀ binding values
Procedure: Briefly, frozen whole guinea-pig brains (Biotrol, Indianapolis, IN) were homogenized in 10 volumes (w/v) of ice-cold 320 mM sucrose using a Brinkman polytron. The homogenate was centrifuged at 1,000 x g for 20 minutes at 4°C. The supernatant was centrifuged at 20,000 x g for 20 minutes at 4°C. The resulting pellet was resuspended in 10 initial volumes of 50 mM Tris/HCl buffer at pH 7.4 and centrifuged at 20,000 x g for 20 minutes at 4°C. The resulting pellet was resuspended in 5 initial volumes ice-cold 50mM Tris/Hcl (pH .4), and the final volume was adjusted to yield a protein concentration of 3 mg/ml, as determined by dye-binding protein assay (Biorad) using BSA as the standard.
Incubations were terminated after 90 minutes at room temperature by addition of 4 ml of ice-cold 50mM Tris/HCl (pH 7.4) and rapid filtration of the membrane suspension through Whatman GF/B glass-fiber filters under vacuum, using a 48-well cell harvester (Brandel, Gaithersburg, MD). The filters were washed 2 times with 4 ml of 50 mM Tris/HCl (pH 7.4). Total filtration and washing time was less than 20 seconds. Each filter was dissolved in 10 ml Cytoscint (Westchem, San Diego, CA), and radioactivity was measured by liquid scintillation spectrometry at a counting efficiency of approximately 50%. IC₅₀ values were determined by interpolation from displacement-curve plots on semilogarithmic graph paper.

[2] = tested on: male albino BKW mice; test: Light/dark exploration of mice (black:white test box); details: for numbers of rears and line crossings compared with controls (sedation): not sedative at the dosage level; for latency to entering the dark compartment / numbers of rears and line crossings at the highest dose (sedation): subcutaneously; for numbers of rears and line crossings at the highest dose (sedation): 0.1 mg/kg, drug not sedative at this level
[3] = tested on: male albino BKW mice; details: mouse, in vivo
[4] = tested on: Male Hooded Lister rats; test: Rat social interaction test; assay type: in vivo; details: for social interactions: 40 min. before testing, 10 min session, n = 6
Source text: A second preferred animal model is the rat social interaction test described by Jones, B.J. et al., supra, wherein the time that two mice spend in social interaction is quantified. […] Both the familiarity and the light level of the test arena may be manipulated. Undrugged rats show the highest level of social interaction when the test arena is familiar and is lit by low light. Social interaction declines if the arena is unfamiliar to the rats or is lit by bright light. Anxiolytic agents prevent this decline. The overall level of motor activity may also be measured to allow detection of drug effects specific to social behaviors.
Male Hooded Lister rats (Glaxo bred, 200-250g), were housed 5 to a cage and were kept in the laboratory environment for at least a week before testing. Rats paired in the test were taken from separate cages.
The test arena consisted of an open-topped box, 62 x 62 x 33 cm with a 7 x 7 matrix of infra-red photocell beams in the walls, 2.5 cm from the floor.
Testing involved placing each member of a pair of rats in opposite corners of the arena and then leaving them undisturbed for 10 min. while recording their behavior remotely on videotape. The behavioral assessments were made subsequently from the recordings. The time spent in social interaction was measured and expressed as a cumulative total for the 10 min session. The behaviors that comprised social interaction were: following with contact, sniffing (but not sniffing of the hindquarters), crawling over and under, tumbling, boxing and grooming.
N-adamantyl-N'-o-tolylguanidine was tested over the range of 0.001-0.1 mg/kg.

[5] = subcutaneously 40 min before testing, 0.01 ug to 0.1 mg/kg
[6] = 0.01 ug to 0.1 mg/kg, result in words

NC(=Nc1ccccc1I)NC12CC3CC(CC(C3)C1)C2 [AdIpG, N-(2-iodophenyl)-N'-(adamant-1-yl)guanidine]
IC50 [1]: 6.2 nM
anxiolytic activity when orally administered ([2]; orally administered, 1 mg/kg): anxiolytic activity
latency to entering the dark compartment in comparison to controls ([2]; orally administered, 1 mg/kg): increase
numbers of line crossings and rears in the light compartment ([2]; orally administered, 1 mg/kg): increase
numbers of rears and line crossings compared with controls (sedation) ([2]; orally administered, 1 mg/kg): did not decrease significantly
numbers of line crossings and rears in the light compartment [2, 5]: increased at the expense of those in the dark compartment
proportion of time the mice spent in the larger, lighted area of the test chamber [2, 5]: increased, in a dose dependant manner
latency to entering the dark compartment [2, 6]: increased in a dose dependant manner
numbers of rears and line crossings at the highest dose (sedation) [2]: did not decrease significantly

N,N-di(o-tolyl)-guanidine [DTG]
number of rears, crossings, or the % time in the black compartment ([2]; s.c., at the concentrations tested, Figure 7): did not affect significantly

Cc1ccccc1NC(=N)NC1CCCCC1 [DChG, N-(o-tolyl)-N'-(cyclohexyl)guanidine]
IC50 [1]: 86 ± 17 nM

Cc1ccccc1NC(=N)N[C@@H]1C[C@@H]2CC[C@H]1C2 (racemic) [N-((±)-endo-2-norbornyl)-N'-(2-methylphenyl)guanidine]
IC50 [1]: 6 nM

CCCN1CCC[C@@H](c2cccc(O)c2)C1 [(-)-3-PPP, reference compound]
IC50 [1]: 280 ± 21 nM

Cc1ccccc1NC(=N)NC1CCCCC1 [N-cyclohexyl-N'-(2-methylphenyl)-guanidine]
IC50 [1]: 13 nM

N=C(Nc1ccccc1I)NC1C2CC3CC(C2)CC1C3 (centres unmarked) [N-adamant-2-yl)-N'-(2-iodophenyl)guanidine]
IC50 [1]: 3.5 nM

N=C(Nc1ccccc1I)N[C@@H]1C[C@@H]2CC[C@H]1C2 (racemic) [N-((±)-endo-2-norbornyl)-N'-(2-iodophenyl)guanidine]
IC50 [1]: 5 nM

N-(adamant-1-yl)-N'-[(E)-2-phenylethenyl]phenylguanidine
IC50 [1]: 1000 nM
numbers of line crossings and rears in the light compartment [2, 5]: tended to remain the same except at the highest dosage
proportion of time the mice spent in the larger, lighted area of the test chamber [2, 5]: generally did not increase
numbers of rears and line crossings at the highest dose (sedation) [2]: did not decrease significantly

N=C1Nc2ccccc2-c2ccccc2N1 [Bridge-DPG, 2-imino-1,3H-dibenzo[d,f]-[1,3]-diazepine]
IC50 [1]: > 100000 nM

Cc1ccccc1NC(=N)Nc1ccc(N)cc1C [NH₂-DTG]
IC50 [1]: 280 ± 20 nM

Cc1ccccc1NC(=N)N[C@H]1C[C@@H]2CC[C@H]1C2 (relative stereo) [N-(exo-2-norbornyl)-N'-(2-methylphenyl)guanidine]
IC50 [1]: 7 nM

Cc1ccccc1NC(=N)NC1C2CC3CC(C2)CC1C3 (centres unmarked) [N-(adamant-2-yl)-N'-(2-methylphenyl)guanidine]
IC50 [1]: 7 nM

O=C1CC2(CCCC2)CC(=O)N1CCCCN1CCN(c2nsc3ccccc23)CC1 [tiospirone, reference compound]
IC50 [1]: 233 ± 52 nM

N=C(NC12CC3CC(CC(C3)C1)C2)NC12CC3CC(CC(C3)C1)C2 [DAG, N,N'-di(adamant-1-yl)guanidine]
anxiolytic activity when orally administered ([2]; orally administered, 1 mg/kg): anxiolytic activity
latency to entering the dark compartment in comparison to controls ([2]; orally administered, 1 mg/kg): increase
numbers of line crossings and rears in the light compartment ([2]; orally administered, 1 mg/kg): increase
numbers of rears and line crossings compared with controls (sedation) ([2]; orally administered, 1 mg/kg): did not decrease significantly
numbers of line crossings and rears in the light compartment [2, 5]: increased at the expense of those in the dark compartment
proportion of time the mice spent in the larger, lighted area of the test chamber [2, 5]: tended to increase
numbers of rears and line crossings at the highest dose (sedation) [2]: did not decrease significantly
latency to entering the dark compartment ([2]; peak effect at 0.01 ug/kg, controls 12 sec): 20 s

C=CCN1CC[C@@]2(C)c3cc(O)ccc3C[C@@H]1[C@@H]2C [(-)-SKF10047, reference compound]
IC50 [1]: 4000 ± 566 nM

CCN1CCCC1CNC(=O)c1cc(S(N)(=O)=O)ccc1OC (centres unmarked) [sulpiride, reference compound]
IC50 [1]: > 100 nM

N=C(NC1CCCCC1)NC12CC3CC(CC(C3)C1)C2 [AdChG, N-(cyclohexyl)-N'-(adamant-1-yl)guanidine]
IC50 [1]: 12.5 nM

CN(C)CCCN1c2ccccc2Sc2ccc(Cl)cc21 [chlorpromazine, reference compound]
IC50 [1]: 1480 ± 265 nM

Cc1cccc(C)c1NC(=N)Nc1c(C)cccc1C [DXG, N,N'-di-(2,6-dimethylphenyl)-guanidine]
IC50 [1]: 90 ± 18 nM

N=C(Nc1ccccc1I)N[C@H]1C[C@@H]2CC[C@H]1C2 (relative stereo) [N-(exo-2-norbornyl)-N'-(2-iodophenyl)guanidine]
IC50 [1]: 4 nM

CN1C(=O)CN=C(c2ccccc2)c2cc(Cl)ccc21 [diazepam, reference compound]
numbers of rears and line crossings at the highest dose (sedation) [3]: decreased significantly
social interactions ([4]; diazepam intraperitoneally 0.125-1 mg/kg): significantly increased
numbers of line crossings and rears in the light compartment ([2]; mouse, in vivo): increased at the expense of those in the dark compartment
proportion of time the mice spent in the larger, lighted area of the test chamber ([2]; mouse, in vivo): dose-dependently increased

CNC(=N)NC [DMG, N,N'-di(methyl)guanidine]
IC50 [1]: > 100000 nM

Cc1ccccc1NC(=N)NC12CC3CC(CC(C3)C1)C2 [AdTG, N-(o-tolyl)-N'-(adamant-1-yl)guanidine]
social interactions ([4]; 0.001-0.1 mg/kg i.p.): significantly increased
dose producing about the same result, relative to the dose of diazepam ([4]; 1 mg/kg for diazepam and 0.1 mg/kg for N-adamantyl-N'-o-tolylguanidine): one-tenth
anxiolytic activity when orally administered ([2]; orally administered, 1 mg/kg): anxiolytic activity
numbers of line crossings and rears in the light compartment ([2]; orally administered, 1 mg/kg): increased at the expense of those in the dark compartment
proportion of time the mice spent in the larger, lighted area of the box ([2]; orally administered, 1 mg/kg): increased significantly
numbers of line crossings and rears in the light compartment [2, 5]: increased at the expense of those in the dark compartment
proportion of time the mice spent in the larger, lighted area of the test chamber [2, 5]: dose dependently increased
latency to entering the dark compartment [2, 6]: increased in a dose dependant manner
numbers of rears and line crossings at the highest dose (sedation) [2]: did not decrease significantly

— patent publication EP0473671B1, “USE OF SIGMA-RECEPTORS LIGANDS FOR THE MANUFACTURE OF AN ANXIOLYTIC AGENT” (STATE OF OREGON BY AND THROUGH OREGON STATE BOARD OF HIGHER …, priority 1989, dated 1990)
